This assay deals with uterine weight associated with rat deciduoma formation. The assay is described as follows: Test Example 5: antiprogesterone activity, uterine weight associated with rat deciduoma formation in ovariectomized rats. In kind it is in vivo. The following applies: 192 h, 8 days, read-out: inhibition rate of uterine weight increase (antiprogesterone action). The protocol:
For the compound A and the compound D (mifepristone), the antiprogesterone activity was measured. Specifically, a sex hormone and a test substance were repeatedly administered to ovariectomized rats as a test system to examine the antiprogesterone action (antiprogesterone activity) based on, as an index, the fluctuation of the uterine weight (the inhibitory action relative to the increase of the weight) associated with rat deciduoma formation.
More specifically, rats (female, Crl:CD(SD), 5-week-old: Charles River Laboratories Japan, Inc.) were subjected to ovariectomy, and from one (1) week after the ovariectomy, a high dose estrone or 5 μg/one animal was hypodermically administered to the rats once a day for three (3) days. From the day after one day rest period, the rats received, once a day over eight (8) days, hypodermic administration of a low dose estrone (1 μg/one animal), intramuscular administration of progesterone (6 mg/kg), and oral administration of a test substance. In the middle of the administration, on Day 4 of the start of administration, the rats were subjected to a stimulation treatment of decidualization reaction to the right uterus. The day after the final administration, the uterine weight (right uterine body) was measured (n=6). Group E was subjected to ovariectomy and a stimulation treatment of decidualization reaction but was not subjected to a hormone treatment.
The test substances and the dosage in the test system (ovariectomized rats) are as follows. • Group E: rats with ovariectomy without hormone treatment • 0.5 v/v % Polysorbate 80 solution, 10 mL/kg (n=6) • Solvent group (control group): 0.5 v/v % Polysorbate 80 solution, 10 mL/kg (n=6) • Group A3: Compound A, 3 mg/kg (n=6) • Group A10: Compound A, 10 mg/kg (n=6) • Group A30: Compound A, 30 mg/kg (n=6) • Group D: Compound D (mifepristone), 3 mg/kg (n=6)

Regarding `CC(=O)O[C@]1(C(C)=O)C[C@@H](O)[C@H]2[C@@H]3C=C(Cl)C4=CC(=O)OC[C@]4(C)[C@H]3CC[C@@]21C` [Compound A, 17α-acetoxy-6-chloro-15β-hydroxy-2-oxa-4,6-pregnadiene-3,20-dione], the inhibition (as a rule, how much of the control response was suppressed) at 3 mg/kg (Group A3: 3 mg/kg oral once a day, not significant) was found to be 15%. Further, the inhibition at 10 mg/kg (Group A10: 10 mg/kg oral once a day, significant) came to 63%. Also, under “Group A30: 30 mg/kg oral once a day, significant”, the inhibition at 30 mg/kg stood at 83.3%.
